Assay results from US8519110B2, “mRNA cap analogs” (Board of Supervisors of Louisiana State University And …, priority 2008, dated 2013).
Read-outs that look alike come from different tables or passages of the source.

Key:
eIF4E = eIF4E (Mus musculus, UniProt P63073); assay: Binding affinity of cap analogs to eIF4E by fluorescence titration; conditions: equilibrium association constant; for Cap analog/eIF4E affinity (KAS): 20 °C, pH 7.2, ionic strength 150 mM
Procedure: Fluorescence titration measurements were carried out on an LS-50B or LS-55 spectrofluorometer (Perkin Elmer Co.) at 20.0±0.2° C. in 50 mM HEPES/KOH (pH 7.2), 0.5 mM EDTA, and 1 mM DTT, with ionic strength adjusted to 150 mM by addition of KCl. Various cap analogue solutions, of increasing concentration, were added in 1 μl aliquots to 1.4 ml of 0.1 or 0.2 μM protein solutions. Fluorescence intensities were measured with excitation at 280 nm or 295 nm with 2.2 nm bandwidth, and detection at 337 nm with 4 nm bandwidth and a 290-nm cut-off filter. The data were corrected for sample dilution and inner filter effects. Equilibrium association constants (Kas) were determined by fitting the theoretical dependence of fluorescence intensity on cap analog concentration to the experimental data, as otherwise described in A. Niedźwiecka et al., “Biophysical studies of eIF4E cap-binding protein: recognition of mRNA 5′ cap structure and synthetic fragments of eIF4G and 4E-BP1 proteins,” J. Mol. Biol., vol. 312, pp. 615-635 (2002). The concentration of protein was allowed to be a free parameter in the equilibrium equation, to determine the amount of “active” protein. The final Kas was calculated as a weighted average of three to ten independent titrations, with the weights taken as the reciprocals of the squares of the numerical standard deviations. Numerical nonlinear least-square regression analysis was performed using ORGIN 6.0 (Microcal Software Inc., USA).
The binding affinities of eukaryotic eIF4E for various cap analogs were determined by fluorescence quenching. This biophysical test allows one to predict the potential efficacy of cap analogs in translation. Those having higher affinities for eIF4E than the unmodified cap analog (m^7GpppG) are expected to be better recognized by the translational machinery, leading to higher translational efficiencies. They also are expected to compete more effectively with unmodified mRNA when free cap dinucleotides are used to inhibit translation. See generally E. Grudzien-Nogalska et al., “Synthesis of anti-reverse cap analogs (ARCAs) and their applications in mRNA translation and stability,” Methods Enzymol., vol. 431, pp. 203-227 (2007).

Human DcpS = molecular target: T1, Human DcpS (Homo sapiens, UniProt Q96C86); assay: Assay of susceptibility to DcpS (RP HPLC); type: biochemical
T1 construct: made in house; host or cells: Escherichia coli
T1 sequence (Q96C86 1-337): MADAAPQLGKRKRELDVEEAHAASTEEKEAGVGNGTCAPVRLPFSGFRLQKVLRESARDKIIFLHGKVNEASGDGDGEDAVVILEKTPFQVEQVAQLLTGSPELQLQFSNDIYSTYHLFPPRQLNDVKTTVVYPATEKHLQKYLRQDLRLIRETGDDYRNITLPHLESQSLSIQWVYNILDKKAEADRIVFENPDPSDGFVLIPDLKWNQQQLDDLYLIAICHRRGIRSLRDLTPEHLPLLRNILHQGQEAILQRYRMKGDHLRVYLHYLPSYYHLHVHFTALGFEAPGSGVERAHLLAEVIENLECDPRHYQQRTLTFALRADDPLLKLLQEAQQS
Procedure: Human DcpS was expressed in Escherichia coli as described in L. Cohen et al., “Nematode m^7GpppG and m3^2,2,7GpppG decapping: activities in Ascaris embryos and characterization of C. elegans scavenger DcpS,” RNA, vol. 10, pp. 1609-1624 (2004). A 15 μM solution of the protein in 20 mM Tris buffer, pH 7.5, containing 50 mM KCl, 0.2 mM EDTA, 1 mM DTT, 0.5 mM PMSF, and 20% glycerol was stored at −80° C. until used. Enzymatic reactions were carried out at 30° C. in 500 μl of 50 mM Tris-HCl, pH 7.9, containing 20 mM MgCl2 and 60 mM (NH4)2SO4. A 40 μM solution of the selected cap analog was treated with 5.0 μl of DcpS for 120 min. At times of 10, 30, 60, and 120 min, a 100-μl sample was collected from the reaction mixture and deactivated by incubation at 90° C. for 2 min. Samples were analyzed without further treatment by analytical RP HPLC with a linear gradient of methanol in 0.1 M KH2PO4, pH 6.0, from 0-50% over 15 min.

[1] = test system: rabbit reticulocyte lysate system; assay: In vitro translation efficiency of capped luciferase mRNA, method I transcripts; type: biochemical
Procedure: A DNA template for in vitro transcription was synthesized by PCR from the plasmid SP6p-5′UTR β-globin-LUCiferase. The template contained the SP6 promoter followed by the 5′-UTR sequence of rabbit β-globin mRNA and the entire firefly luciferase mRNA coding region. A typical in vitro transcription reaction mixture (50 μl) contained SP6 transcription buffer (Fermentas, cat. no. EP0131), 2 μg of DNA template, 2 U/μl RiboLock Ribonuclease Inhibitor (Fermentas), 2 mM each of ATP, CTP, and UTP, 0.1 mM GTP, and 1 mM dinucleotide cap analog. The reaction mixture was incubated at 37° C. for 5 min before the addition of SP6 RNA polymerase (Fermentas) to a final concentration of 2 U/μl. After 30 min of incubation at 37° C., GTP was added to a final concentration of 1 mM, and the reaction continued for an additional 90 min. The reaction mixtures were then treated with 1 U of DNase RQ1 (RNAse-free, Promega) per μg of template DNA in transcription buffer at 37° C. for 20 min. RNA transcripts were purified on DEPC-treated Sephadex G-50 spin columns (Pharmacia). The integrity of transcripts was confirmed by electrophoresis on a non-denaturating, 1% agarose gel. Concentrations were determined spectrophotometrically. The transcripts were stored at −80° C. until used.
(§1) A micrococcal nuclease-treated rabbit reticulocyte lysate system (Flexi Rabbit Reticulocyte Lysate System, Promega) was used for in vitro translation. Translation reactions were performed in 10 μl for 60 min at 30° C. A typical reaction mixture contained 40% reticulocyte lysate, the 20 “standard” amino acids (0.01 mM each), MgCl2 (1.2 mM), potassium acetate (170 mM), and mRNA (five different concentrations of each transcript, ranging from 0.25 to 4 μg/ml). Luciferase activity was measured in a luminometer (Glomax, Promega). Linear regression was used to fit the data points (luciferase activity versus concentration of mRNA transcript), and translational efficiency was defined as the slope of this line. The relative translational efficiencies of the test mRNAs were compared to that of m^7GpppG-capped luciferase mRNA, the latter being defined as 1.0.

[2] = test system: rabbit reticulocyte lysate system; assay: In vitro translation efficiency of capped luciferase mRNA with 31-base poly(A) tail, method II transcripts; type: biochemical; conditions: for Translation efficiency in comparison to m^7GpppG-LUC-(A)31 mRNA, Experiment No. 4: experiment 4; for Translation efficiency in comparison to m^7GpppG-LUC-(A)31 mRNA, Experiment No. 5: experiment 5; for Translation efficiency in comparison to m^7GpppG-LUC-(A)31 mRNA, Mean: mean of experiments
Procedure: Capped, polyadenylated luciferase mRNAs were synthesized in vitro by PCR from a dsDNA template that contained the SP6 promoter, the 5′-UTR sequence of rabbit β-globin mRNA, the entire firefly luciferase coding region, and 31 adenosine residues. A typical transcription reaction mixture (40 μl) contained SP6 transcription buffer (Fermentas), 0.7 ug of DNA template, 1 U/μl RiboLock Ribonuclease Inhibitor (Fermentas), 0.5 mM each of ATP, CTP, and UTP, 0.1 mM GTP, and 0.5 mM dinucleotide cap analog. The reaction mixture was incubated at 37° C. for 5 min before addition of SP6 RNA polymerase (Fermentas) to a final concentration of 1 U/μl, and incubation then continued for 45 min at 37° C. The reaction mixture was treated with DNase as in Method I. RNA transcripts were purified with NucAway Spin Columns (Ambion). The integrity of transcripts and quantitation was performed as in Method I.
as §1

[3] = molecular target: cap-dependent translation of luciferase mRNA in reticulocyte lysate; assay: Inhibition of cap-dependent translation in vitro by free cap analogs; type: biochemical, rabbit
Procedure: In vitro translation reactions were performed in 12.5 μl for 60 min at 30° C. under conditions favorable for cap-dependent translation. In some cases, the reaction mixture was incubated for 60 min at 30° C. prior to adding the dinucleotide cap analog (inhibitor) and m2^7,3′-OGppG-capped luciferase mRNA to start translation. In other cases, to analyze biological stability, the cap analog was incubated in the translation mixture for 60 min at 30° C. prior to adding the luciferase mRNA to start translation. A typical reaction mixture contained 56% reticulocyte lysate, the 20 “standard” amino acids (0.01 mM each), MgCl2 (1.2 mM), potassium acetate (170 mM), RiboLock Ribonuclease Inhibitor (0.32 U/μl), cap analog solution ( 1/10 of total reaction volume), and m2^7,3′-OGpppG-capped luciferase RNA. […] Reactions were performed with cap analog concentrations ranging from 0.12 to 100 μM. Luciferase activity was measured in a luminometer. […] The program OriginPro8 (OriginLab) was used for curve fitting with the equation qLUC=Z/(1+I/IC50)+N, where qLUC is the activity of luciferase synthesized in the presence of cap analog, Z is the activity of luciferase synthesized in the absence of cap analog, N is the activity of luciferase synthesized in a cap-independent manner, and I is the cap analog concentration.
Two type of experiments were carried out. In one set of experiments (condition A), a cap analog was added to the translation system together with luciferase mRNA. In the other set of experiments (condition B), the cap analog was incubated in the translation system for 60 min before addition of mRNA. […] There was a correlation between the resistance to hydrolysis by DcpS and the stability of analogs in the translation system.

[4] = 40 μM cap analog, 30° C., up to 120 min

Chain of eIF4E (P63073 28-217 limits assumed): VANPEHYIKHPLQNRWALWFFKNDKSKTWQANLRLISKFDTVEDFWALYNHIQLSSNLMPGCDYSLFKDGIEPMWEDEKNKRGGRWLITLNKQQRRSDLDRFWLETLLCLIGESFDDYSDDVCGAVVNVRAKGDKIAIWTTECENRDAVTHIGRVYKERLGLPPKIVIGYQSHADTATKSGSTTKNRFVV

| Cap analog-eIF4E affinity (KAS) (eIF4E; Table 3) | Cap analog/eIF4E affinity (KAS) (eIF4E) | Susceptibility to DcpS (Human DcpS; [4]) | Susceptibility to DcpS (Human DcpS; Table 3) | Translation efficiency in comparison with m^7GpppG-LUC mRNA, Experiment No. 1 ([1]; experiment 1) | Translation efficiency in comparison with m^7GpppG-LUC mRNA, Experiment No. 2 ([1]; experiment 2) | Translation efficiency in comparison with m^7GpppG-LUC mRNA, Experiment No. 3 ([1]; experiment 3) | Translation efficiency in comparison with m^7GpppG-LUC mRNA, Experiment No. 4 ([1]; experiment 4) | Translation efficiency in comparison with m^7GpppG-LUC mRNA, Mean ([1]; mean of experiments) | In vitro translational efficiency, method I ([1]; relative to m^7GpppG-capped luciferase mRNA = 1.0) | In vitro translational efficiency (method II) ([2]; Table 3, relative to m^7GpppG-capped mRNA = 1.0) | Translation efficiency in comparison to m^7GpppG-LUC-(A)31 mRNA, Experiment No. 1 ([2]; experiment 1) | Translation efficiency in comparison to m^7GpppG-LUC-(A)31 mRNA, Experiment No. 2 ([2]; experiment 2) | Translation efficiency in comparison to m^7GpppG-LUC-(A)31 mRNA, Experiment No. 3 ([2]; experiment 3) | Translation efficiency in comparison to m^7GpppG-LUC-(A)31 mRNA, Experiment No. 4 [2] | Translation efficiency in comparison to m^7GpppG-LUC-(A)31 mRNA, Experiment No. 5 [2] | Translation efficiency in comparison to m^7GpppG-LUC-(A)31 mRNA, Mean [2] | IC50 ([3]; cap analog added together with luciferase mRNA, read-out: Inhibition of in vitro translation (IC50), condition A) | IC50 ([3]; cap analog incubated in translation system 60 min before addition of mRNA, read-out: Inhibition of in vitro translation (IC50), condition B) | Compound |
| --- | --- | --- | --- | --- | --- | --- | --- | --- | --- | --- | --- | --- | --- | --- | --- | --- | --- | --- | --- |
| 10.2 ± 0.3 μM^−1 | 10.2 ± 0.3 μM^−1 | hydrolyzed | hydrolyzed | 2.53 | 2.92 | 2.96 | 2.50 | 2.73 | 2.73 ± 0.25 | 1.82 ± 0.20 | 1.98 | 1.66 | 1.61 | 1.77 | 2.08 | 1.82 | – | – | CO[C@H]1[C@@H](O)[C@H]([n+]2cn(C)c3c(=O)[nH]c(N)nc32)O[C@@H]1COP(=O)([O-])OP(=O)(O)OP(=O)(O)OC[C@H]1O[C@@H](n2cnc3c(=O)[nH]c(N)nc32)[C@H](O)[C@@H]1O [m2^7,3′-OGpppG, 7-methyl(3′-O-methyl)GpppG, reference compound] |
| – | 13.0 ± 0.2 μM^−1 | resistant | – | – | – | – | – | – | – | – | – | – | – | – | – | – | 4.5 ± 0.5 µM | 3.5 ± 0.9 µM | [BH3-]P(=O)(OP(=O)(O)OCC1OC(n2cnc3c(=O)[nH]c(N)nc32)C(O)C1O)OP(=O)(O)OCC1OC(n2c[n+](C)c3c(=O)[nH]c(N)nc32)C(O)C1O (single isomer, unassigned) [m^7GppBH3pG (D2), m^7GppBH3pG] |
| – | 14.4 ± 0.2 μM^−1 | hydrolyzed | – | – | – | – | – | – | – | – | – | – | – | 1.76 | 1.92 | 1.84 | – | – | [BH3-]P(=O)(OC[C@H]1O[C@@H](n2cnc3c(=O)[nH]c(N)nc32)[C@H](O)[C@@H]1O)OP(=O)(O)OP(=O)(O)OC[C@H]1O[C@@H](n2c[n+](C)c3c(=O)[nH]c(N)nc32)[C@H](OC)[C@@H]1O (single isomer, unassigned) [m2^7,2′-OGpppBH3G (D2), m2^7,2′-OGpppBH3G] |
